Counter-ions that a name gives are not always drawn. Like-named read-outs stand apart in the source and are kept apart here.
Columns and labels:
MDA-MB-231 cells = assay: MTT cytotoxicity assay, MDA-MB-231; format: cell-based, human; conditions: read-out: IC50 MDA-MB-231
Protocol: The data was calculated and presented as IC50 values in Table 1.
(§1) The cytotoxicities of the compounds were evaluated by the MTT assay, which is based on the conversion of MTT to formazan crystals by mitochondrial dehydrogenases. […] The medium was incubated with 20 μL of 5 mg/mL MTT solution for 3 h in a humidified incubator containing 5% CO2. The purple coloured formazan crystals formed in the wells were dissolved in DMSO and their absorbances were measured at 570 nm with a microplate reader. Cell viability was expressed as a percentage of the value in control cultures.

hTERT-RPE1 cells = assay: MTT cytotoxicity assay, hTERT-RPE1 normal cells; format: cell-based, human; conditions: read-out: IC50 hTERT-RPE1
Protocol: (§2) The anticancer activities of compounds 17–24, 41–56 against MCF-7, MDA-MB-231 and hTERT-RPE1 cells were determined in vitro by an MTT assay. […] The data was calculated and presented as IC50 values in Table 1.
as §1

MCF-7 cells = assay: MTT cytotoxicity assay, MCF-7; format: cell-based, human; conditions: read-out: IC50 MCF-7
Protocol: as §2, §1

[1] = human breast cancer cell line MDA-MB-231, MTT method, 24 h treatment, mean ± SD
[2] = normal human retinal pigment epithelial cell line hTERT-RPE1, MTT method, 24 h treatment, mean ± SD
[3] = MCF7, human breast cancer cell line MCF-7, MTT method, 24 h treatment, mean ± SD

SMILES | melting point | other results
COC(=O)/C=C/c1ccc(OC(=O)[C@@]2(C)CC[C@]3(C)CC[C@]4(C)C(=CC(=O)[C@@H]5[C@@]6(C)CC[C@H](OC(=O)[C@@H](N)CCSC)C(C)(C)[C@@H]6CC[C@]54C)[C@@H]3C2)c(OC)c1 (as salt: hydrochloride) [Compound 41, Ferulic acid methyl ester 3β-(l-methionine)-11-oxo-olean-12-en-30-oate hydrochloride] | 203 to 205 °C | –
COC(=O)/C=C/c1ccc(OC(=O)[C@@]2(C)CC[C@]3(C)CC[C@]4(C)C(=CC(=O)[C@@H]5[C@@]6(C)CC[C@H](OC(=O)[C@@H](N)CC[Se]C)C(C)(C)[C@@H]6CC[C@]54C)[C@@H]3C2)c(OC)c1 (as salt: hydrochloride) [Compound 42, Ferulic acid methyl ester 3β-(l-selenomethionine)-11-oxo-olean-12-en-30-oate hydrochloride] | 210 to 213 °C | –
CCOC(=O)/C=C/c1ccc(OC(=O)[C@@]2(C)CC[C@]3(C)CC[C@]4(C)C(=CC(=O)[C@@H]5[C@@]6(C)CC[C@H](OC(=O)[C@@H](N)CCSC)C(C)(C)[C@@H]6CC[C@]54C)[C@@H]3C2)c(OC)c1 (as salt: hydrochloride) [Compound 43, Ferulic acid ethyl ester 3β-(l-methionine)-11-oxo-olean-12-en-30-oate hydrochloride] | 191 to 194 °C | –
CCOC(=O)/C=C/c1ccc(OC(=O)[C@@]2(C)CC[C@]3(C)CC[C@]4(C)C(=CC(=O)[C@@H]5[C@@]6(C)CC[C@H](OC(=O)[C@@H](N)CC[Se]C)C(C)(C)[C@@H]6CC[C@]54C)[C@@H]3C2)c(OC)c1 (as salt: hydrochloride) [Compound 44, Ferulic acid ethyl ester 3β-(l-selenomethionine)-11-oxo-olean-12-en-30-oate hydrochloride] | 205 to 207 °C | –
COC(=O)/C=C/c1ccc(OC(=O)[C@@]2(C)CC[C@]3(C)CC[C@]4(C)C(=CC(=O)[C@@H]5[C@@]6(C)CC[C@H](OC(=O)[C@@H](N)CCSC)C(C)(C)[C@@H]6CC[C@]54C)[C@@H]3C2)cc1 (as salt: hydrochloride) [Compound 45, trans-4-Hydroxycinnamic acid methyl ester 3β-(l-methionine)-11-oxo-olean-12-en-30-oate hydrochloride] | 205 to 207 °C | –
COC(=O)/C=C/c1ccc(OC(=O)[C@@]2(C)CC[C@]3(C)CC[C@]4(C)C(=CC(=O)[C@@H]5[C@@]6(C)CC[C@H](OC(=O)[C@@H](N)CC[Se]C)C(C)(C)[C@@H]6CC[C@]54C)[C@@H]3C2)cc1 (as salt: hydrochloride) [Compound 46, trans-4-Hydroxycinnamic acid methyl ester 3β-(l-selenomethionine)-11-oxo-olean-12-en-30-oate hydrochloride] | 218 to 221 °C | –
CCOC(=O)/C=C/c1ccc(OC(=O)[C@@]2(C)CC[C@]3(C)CC[C@]4(C)C(=CC(=O)[C@@H]5[C@@]6(C)CC[C@H](OC(=O)[C@@H](N)CCSC)C(C)(C)[C@@H]6CC[C@]54C)[C@@H]3C2)cc1 (as salt: hydrochloride) [Compound 47, trans-4-Hydroxycinnamic acid ethyl ester 3β-(l-methionine)-11-oxo-olean-12-en-30-oatehydrochloride] | 202 to 204 °C | –
CCOC(=O)/C=C/c1ccc(OC(=O)[C@@]2(C)CC[C@]3(C)CC[C@]4(C)C(=CC(=O)[C@@H]5[C@@]6(C)CC[C@H](OC(=O)[C@@H](N)CC[Se]C)C(C)(C)[C@@H]6CC[C@]54C)[C@@H]3C2)cc1 (as salt: hydrochloride) [Compound 48, trans-4-Hydroxycinnamic acid ethyl ester 3β-(l-selenomethionine)-11-oxo-olean-12-en-30-oate hydrochloride] | 208 to 211 °C | –
COC(=O)/C=C/c1ccc(OC)c(OC(=O)[C@@]2(C)CC[C@]3(C)CC[C@]4(C)C(=CC(=O)[C@@H]5[C@@]6(C)CC[C@H](OC(=O)[C@@H](N)CCSC)C(C)(C)[C@@H]6CC[C@]54C)[C@@H]3C2)c1 (as salt: hydrochloride) [Compound 49, Isoferulic acid methyl ester 3β-(l-methionine)-11-oxo-olean-12-en-30-oate hydrochloride] | 199 to 201 °C | –
COC(=O)/C=C/c1ccc(OC)c(OC(=O)[C@@]2(C)CC[C@]3(C)CC[C@]4(C)C(=CC(=O)[C@@H]5[C@@]6(C)CC[C@H](OC(=O)[C@@H](N)CC[Se]C)C(C)(C)[C@@H]6CC[C@]54C)[C@@H]3C2)c1 (as salt: hydrochloride) [Compound 50, Isoferulic acid methyl ester 3β-(l-selenomethionine)-11-oxo-olean-12-en-30-oate hydrochloride] | 201 to 203 °C | –
CCOC(=O)/C=C/c1ccc(OC)c(OC(=O)[C@@]2(C)CC[C@]3(C)CC[C@]4(C)C(=CC(=O)[C@@H]5[C@@]6(C)CC[C@H](OC(=O)[C@@H](N)CCSC)C(C)(C)[C@@H]6CC[C@]54C)[C@@H]3C2)c1 (as salt: hydrochloride) [Compound 51, Isoferulic acid ethyl ester 3β-(l-methionine)-11-oxo-olean-12-en-30-oate hydrochloride] | 192 to 195 °C | –
CCOC(=O)/C=C/c1ccc(OC)c(OC(=O)[C@@]2(C)CC[C@]3(C)CC[C@]4(C)C(=CC(=O)[C@@H]5[C@@]6(C)CC[C@H](OC(=O)[C@@H](N)CC[Se]C)C(C)(C)[C@@H]6CC[C@]54C)[C@@H]3C2)c1 (as salt: hydrochloride) [Compound 52, Isoferulic acid ethyl ester 3β-(l-selenomethionine)-11-oxo-olean-12-en-30-oate hydrochloride] | 196 to 198 °C | –
COC(=O)/C=C/c1cccc(OC(=O)[C@@]2(C)CC[C@]3(C)CC[C@]4(C)C(=CC(=O)[C@@H]5[C@@]6(C)CC[C@H](OC(=O)[C@@H](N)CCSC)C(C)(C)[C@@H]6CC[C@]54C)[C@@H]3C2)c1 (as salt: hydrochloride) [Compound 53, trans-3-Hydroxycinnamic acid methyl ester 3β-(l-methionine)-11-oxo-olean-12-en-30-oate hydrochloride] | 190 to 192 °C | –
COC(=O)/C=C/c1cccc(OC(=O)[C@@]2(C)CC[C@]3(C)CC[C@]4(C)C(=CC(=O)[C@@H]5[C@@]6(C)CC[C@H](OC(=O)[C@@H](N)CC[Se]C)C(C)(C)[C@@H]6CC[C@]54C)[C@@H]3C2)c1 (as salt: hydrochloride) [Compound 54, trans-3-Hydroxycinnamic acid methyl ester 3β-(l-selenomethionine)-11-oxo-olean-12-en-30-oate hydro-chloride] | 194 to 196 °C | –
CCOC(=O)/C=C/c1cccc(OC(=O)[C@@]2(C)CC[C@]3(C)CC[C@]4(C)C(=CC(=O)[C@@H]5[C@@]6(C)CC[C@H](OC(=O)[C@@H](N)CCSC)C(C)(C)[C@@H]6CC[C@]54C)[C@@H]3C2)c1 (as salt: hydrochloride) [Compound 55, trans-3-Hydroxycinnamic acid ethyl ester 3β-(l-methionine)-11-oxo-olean-12-en-30-oate hydrochloride] | 183 to 185 °C | –
CCOC(=O)/C=C/c1cccc(OC(=O)[C@@]2(C)CC[C@]3(C)CC[C@]4(C)C(=CC(=O)[C@@H]5[C@@]6(C)CC[C@H](OC(=O)[C@@H](N)CC[Se]C)C(C)(C)[C@@H]6CC[C@]54C)[C@@H]3C2)c1 (as salt: hydrochloride) [Compound 56, trans-3-Hydroxycinnamic acid ethyl ester 3β-(l-selenomethionine)-11-oxo-olean-12-en-30-oate hydrochloride] | 191 to 194 °C | –
COC(=O)/C=C/c1ccc(OC(=O)[C@@]2(C)CC[C@]3(C)CC[C@]4(C)C(=CC(=O)[C@@H]5[C@@]6(C)CC[C@H](O)C(C)(C)[C@@H]6CC[C@]54C)[C@@H]3C2)c(OC)c1 [Compound 17, Ferulic acid methyl ester 3β-hydroxy-11-oxo-olean-12-en-30-oate] | 229 to 231 °C | IC50 (MDA-MB-231 cells; [1]): 5.03 ± 0.82 µM; IC50 (hTERT-RPE1 cells; [2]): 17.3 ± 1.21 µM; IC50 (MCF-7 cells; [3]): 13.6 ± 0.93 µM
CCOC(=O)/C=C/c1ccc(OC(=O)[C@@]2(C)CC[C@]3(C)CC[C@]4(C)C(=CC(=O)[C@@H]5[C@@]6(C)CC[C@H](O)C(C)(C)[C@@H]6CC[C@]54C)[C@@H]3C2)c(OC)c1 [Compound 18, Ferulic acid ethyl ester 3β-hydroxy-11-oxo-olean-12-en-30-oate] | 224 to 226 °C | IC50 (MDA-MB-231 cells; [1]): 8.14 ± 0.76 µM; IC50 (hTERT-RPE1 cells; [2]): 22.8 ± 0.97 µM; IC50 (MCF-7 cells; [3]): 22.5 ± 1.26 µM
CCOC(=O)/C=C/c1cccc(OC(=O)[C@@]2(C)CC[C@]3(C)CC[C@]4(C)C(=CC(=O)[C@@H]5[C@@]6(C)CC[C@H](OC(=O)[C@@H](N)CC[Se]C)C(C)(C)[C@@H]6CC[C@]54C)[C@@H]3C2)c1 [Compound 56, trans-3-Hydroxycinnamic acid ethyl ester 3β-(l-selenomethionine)-11-oxo-olean-12-en-30-oate hydrochloride] | – | IC50 (MDA-MB-231 cells; Homo sapiens, MDA-MB-231, 24 h): 1.53 ± 0.25 µM; IC50 (hTERT-RPE1 cells; Homo sapiens, hTERT-RPE1, 24 h): 3.7 ± 0.29 µM; IC50 (MCF-7 cells; Homo sapiens, MCF7, 24 h): 2.57 ± 0.4 µM
CC1(C)[C@@H](O)CC[C@]2(C)[C@H]3C(=O)C=C4[C@@H]5C[C@@](C)(C(=O)O)CC[C@]5(C)CC[C@@]4(C)[C@]3(C)CC[C@@H]12 [GA, glycyrrhetinic acid] | – | IC50 (MDA-MB-231 cells; [1]): 84.7 ± 1.73 µM; IC50 (hTERT-RPE1 cells; [2]): 63.4 ± 1.07 µM; IC50 (MCF-7 cells; [3]): 75.7 ± 1.52 µM

From article PMC6274419, “Synthesis and Anticancer Activities of Glycyrrhetinic Acid Derivatives” (Molecules, 2016)
